Test results: patent US20250073244A1, “CRYSTALLINE FORMS OF PENTAAZA MACROCYCLIC RING COMPLEX” (Galera Labs, LLC, priority 2023, published 2025)

What was measured:
[1] = Crystallization from hot saturated solutions by fast cooling; settings: fast cooling from 50° C. (ice bath); MEK; yellow solid
Protocol: (§1) Approximate 100 mg of drug substance was dissolved in the minimal amount of selected solvents at 50° C. Obtained solutions were put into an ice bath. Precipitates were collected by filtration. The solid part (wet cake) was investigated by XRPD. When differences were observed, additional investigations were performed (e.g. DSC, TGA. FT-IR, PLM/SEM, etc.). When no precipitation was obtained, the solutions were put in −20° C. freezer for crystallization.

[2] = Crystallization from hot saturated solutions by slow cooling; settings: slow cooling 50° C. to 5° C. at 0.1° C./min
Protocol: as §1, with “cooled to 5° C. at 0.1° C./min.” for “put into an ice bath.”, “etc.).” for “etc.). When no precipitation was obtained, the solutions were put in −20° C. freezer for crystallization.”
Scale up: About 200 mg of drug substance will be dissolved in MEK. Obtained solutions will be applied with cooling rate of 0.1° C./min for slow cooling.

[3] = Equilibration with solvents at 50° C. for 1 week
Protocol: About 50 mg of drug substance was equilibrated in minimal amount of solvent at 50° C. for 1 week with a stirring plate (Table 32). Obtained suspension was filtered. The solid part (wet cake) was investigated by XRPD. When differences were observed, additional investigations were performed (e.g. DSC, TGA. FT-IR, PLM/SEM, etc.).

[4] = Precipitation by addition of anti-solvent; settings: anti-solvent Heptane
Protocol: About 50 mg of drug substance was dissolved in a good solvent. Anti-solvent was added into the obtained solutions slowly. Precipitates were collected by filtration. The solid part (wet cake) was investigated by XRPD. When differences were observed, additional investigations were performed (e.g. DSC, TGA. FT-IR, PLM/SEM, etc.).
Scale up: About 200 mg of drug substance was dissolved in EtOAc. Heptane was added to the obtained solutions. The solid part (wet cake) was investigated by XRPD. When differences were observed, additional investigations were performed (e.g. DSC, TGA. FT-IR, PLM/SEM, etc.)

[5] = Water activity study at 25° C. (acetone/water); type: physicochemical; settings: Acetone & water, protected by N2, 5 days
Protocol: Water activity experiments were conducted at 25° C. in 10 different water activities with 1 set of organic solvent/water mixtures (acetone/water) to determine critical water activity between anhydrate and hydrate.

[6] = Crystallization at room temperature by slow evaporation
Protocol: Combined with approximate solubility experiment, solubility samples were filtered by 0.45 μm nylon filter. Obtained solutions were slow evaporated at ambient condition. Solid residues were examined for their polymorphic form (Table 34).
Scale up: About 200 mg of drug substance will be dissolved in EtOAc. Obtained solutions shall be exposed to ambient condition (protected by N2) to allow slow evaporation of solvents (Table 35).

[7] = Scale up experiment of Pattern A and Pattern D; settings: Slow cooling, MEK
Protocol: About 6 g API were used for Pattern A and Pattern D scale up.
Obtained suspension was filtered. The solid part (wet cake) was investigated by XRPD.
About 3 g drug substance were equilibrated in 8 mL of solvent (Water: Acetone, 10:90, v:v) at 25° C. for 1 week with a stirring plate. Obtained suspension was filtered. The solid part (wet cake) was investigated by XRPD.

In the case of `CCC(=O)[O][Mn][O]C(=O)CC.c1cc2nc(c1)CN[C@H]1CCCC[C@@H]1NCCN[C@H]1CCCC[C@@H]1NC2` [API], the purity [1] is reported as “Yellow solid, 94.19%”, the Comments ([2]; Acetone) is reported as “API was soluble in the solvent” and the purity ([2]; EtOAc) is reported as “White solid, purity 100%”. For the same compound, the Comments ([2]; IPA) was “API was soluble in the solvent”, the Comments ([2]; IPAC) was “API was soluble in the solvent” and the purity ([2]; MEK) was “White solid, purity 100%”. For the same compound, the Comments ([2]; Water) was “API was soluble in the solvent”, the Comments ([3]; Heptane) was “API degradation” and the purity ([3]; Heptane) was 94.65%. The Comments ([3]; Heptane/Acetone, 80/20) was “API degradation”, the purity ([3]; Heptane/Acetone, 80/20) was 95.63% and the Comments ([3]; Heptane/EtOAc, 80/20) was “API degradation”. The purity ([3]; Heptane/EtOAc, 80/20) was 85.84%, the Comments ([3]; Heptane/EtOH, 80/20) was “API was soluble in the solvent” and the Comments ([3]; Heptane/IPA, 80/20) was “API was soluble in the solvent”. For the same compound, the Comments ([3]; MTBE) was “API degradation”, the purity ([3]; MTBE) was 92.26% and the Comments ([3]; MTBE/Acetone, 80/20) was “API degradation”. The purity ([3]; MTBE/Acetone, 80/20) was 93.80%, the Comments ([3]; MTBE/EtOAc, 80/20) was “API degradation” and the purity ([3]; MTBE/EtOAc, 80/20) was 87.67%. For the same compound, the Comments ([3]; MTBE/EtOH, 80/20) was “API was soluble in the solvent”, the Comments ([3]; MTBE/IPA, 80/20) was “API was soluble in the solvent” and the purity ([4]; solvent Acetone) was “purity 99.93%”. The purity ([4]; solvent EtOAc) was “purity 99.95%”, the Comments ([5]; a.w. 0) was “API degradation” and the purity ([5]; a.w. 0) was 97.34%. For the same compound, the XRPD ([5]; a.w. 0.103) was “Pattern A”, the purity ([5]; a.w. 0.103) was “Purity 98.27%” and the XRPD ([5]; a.w. 0.206) was “Pattern A”. For the same compound, the purity ([5]; a.w. 0.206) was “Purity 99.18%”, the XRPD ([5]; a.w. 0.301) was “Pattern D” and the purity ([5]; a.w. 0.301) was “Purity 99.77%”. The XRPD ([5]; a.w. 0.400) was “Pattern D”, the purity ([5]; a.w. 0.400) was “Purity 99.49%” and the XRPD ([5]; a.w. 0.501) was “Pattern D”. For the same compound, the purity ([5]; a.w. 0.501) was “Purity 99.33%”, the XRPD ([5]; a.w. 0.603) was “Pattern D” and the purity ([5]; a.w. 0.603) was “Purity 99.19%”. For the same compound, the Comments ([5]; a.w. 0.703) was “Clear solution”, the Comments ([5]; a.w. 0.803) was “Clear solution” and the Comments ([5]; a.w. 0.901) was “Clear solution”. For the same compound, the Comments ([6]; protect with N2, 1,4-Dioxane) was “API degradation, purity”, the purity ([6]; protect with N2, 1,4-Dioxane) was 97.76% and the Comments ([6]; protect with N2, ACN) was “API degradation, purity”. The purity ([6]; protect with N2, ACN) was 98.98%, the purity ([6]; protect with N2, Acetone) was “Purity 99.39%” and the purity ([6]; protect with N2, DCM) was “Purity 99.93%”. The purity ([6]; protect with N2, EtOAc) was “Purity 99.42%”, the purity ([6]; protect with N2, Ethanol) was “Purity 99.65%” and the purity ([6]; protect with N2, IPA) was “Purity 99.63%”. The purity ([6]; protect with N2, IPAC) was “Purity 99.90%”, the purity ([6]; protect with N2, MEK) was “Purity 99.33%” and the purity ([6]; protect with N2, MTBE) was “Purity 99.88%”. For the same compound, the purity ([6]; protect with N2, Methanol) was “Purity 99.92%”, the purity ([6]; protect with N2, THF) was “Purity 99.12%” and the Comments ([6]; protect with N2, Toluene) was “API degradation, purity”. The purity ([6]; protect with N2, Toluene) was 96.47%, the Comments [7] was “API degradation, purity” and the purity [7] was 93.4%.
